Experimental data: US20250304649A1, “SCN1B MIMETIC PEPTIDES AND USES THEREOF” (Virginia Tech Intellectual Properties, Inc., priority 2022, published 2025)
“Also recorded” adds a separate entry of the source. Positions of bridges follow the written chain, without caps; N, C: chain ends. No end group written: not given here.

Columns and labels:
[1] = system: regulated intramembrane proteolysis (RIP) of β1 in 1610β1 cells; assay: Western blot of full-length β1 and C-terminal fragment (regulated intramembrane proteolysis) in 1610β1 cells; assay type: cell-based, Chinese hamster; conditions: for CTF levels on immunoblots, peptide alone: without DAPT
Experimental: (FIG. 8A) Representative Western blot showing 0.1% DMSO, 50 μM βadp1, 1 μM DAPT, and 50 μM+1 μM DAPT treatments at 6 hours, 24 hours, and 48 hours of treatment. Cells were plated and treated simultaneously, and then lysate was collected at the indicated 6, 24, or 48 hours. Detection of the β1 subunit was done using a c-terminal antibody “Na Channel β1 Subunit (D4Z2N) Rabbit mAb #13950” (Cell Signaling Technologies). This allowed for labeling of both the full length β1 protein (37 kD) and the C-terminal fragment (CTF) (19 kD). […] (FIG. 8B) Quantification of the 37 kD full-length β1 protein at 6, 24, and 48 hours. All results are normalized to DMSO treatment at each timepoint and then shown as a ratio of DAPT+βadp1/DAPT to account for the DAPT treatment in each. […] (FIG. 8C) Quantification of the 19 kD CTF of β1. All results are normalized to DMSO treatment at each timepoint and then shown as a ratio of DAPT+βadp1/DAPT to account for the DAPT treatment in each.
β1 abundance was further examined using Western blotting (WB) at time points of 6, 24, and 48 hours after initial βadp1 treatment. Cells were plated in 35 mm cell culture dishes and treated with 50 μM βadp1 or βS2L solubilized in a final concentration of 0.1% DMSO at the time of plating. The control was DMSO vehicle. To determine whether βadp1 affects the RIP of β1, cells were also treated with 1 μM DAPT, an inhibitor of γ-secretase, to cause an accumulation of the intermediate substrate in the RIP of β1, the CTF. Whole cell lysate was collected and run on stain free gels and transferred to a Polyvinylidene difluoride (PVDF) membrane. Membranes were labeled with an antibody against the c-terminal domain of β1 (Cell Signaling Technologies).
β1 has been reported to undergo a process of […] intramembrane proteolysis (RIP) by BACE1 and γ-secretase, ultimately resulting in the production of a soluble intracellular domain (ICD) that is translocated to the nucleus, with correlated effects on gene transcription. Applicant sought to determine if the β1 targeting peptides affect the RIP process in 1610β1 cells and whether any effect relates to changes in the distribution and abundance of β1 immunolabeling we observed in this model. First, to confirm that β1 underwent RIP in 1610β1 cells, Applicant treated cells with the y-secretase inhibitor DAPT. In the presence of DAPT, it was noted that the 19 kD Carboxyl-Terminal Fragment (CTF) accumulated in Western blots from cells sampled at 6, 24 and 48 hours following initiation of treatment, similar to results published by others in CHL cells and MDA-MB-231 breast cancer cells (FIG. 12A). Without DAPT treatment the 19 kD CTF was virtually non-detectable at any of the time points sampled (FIG. 12A). Next, Applicant co-treated cells with DAPT in the presence of βadp1 or βS2L. […]

[2] = system: 1610β1 cells (β1/SCN1B-mediated cell adhesion); assay: Electric cell-substrate impedance sensing (ECIS) of cell adhesion in 1610β1 monolayers; assay type: cell-based, Chinese hamster; conditions: for resistance compared to vehicle over the entire time course / resistance compared to DMSO vehicle at 5 hours / resistance compared to DMSO vehicle at (up to) 20 hours / resistance compared to DMSO vehicle at 40 hours: 10 μM; for resistance compared to vehicle over the entire time course: 40 hour time course; for resistance compared to DMSO vehicle at 5 hours / resistance compared to DMSO vehicle at (up to) 20 hours / resistance compared to DMSO vehicle at 40 hours: single treatment at plating; for acute de-adhesion effects: dimerized peptides, ECIS time course
From the text: FIGS. 3A-3E show βadp1 binding and identification of βadp1 derived smaller peptide fragments with similar function. […] Positive and negatively charged moieties on the adhesion surface of the β1 Ig loop are shown in red and blue (as represented in greyscale), respectively. […] Peptides towards the carboxyl terminus of βadp1, especially those incorporating hydrophobic leucine residues, show the most adhesion reducing activity. Based on the ECIS time course data, and predictions from molecular modeling of likely binding in the hydrophobic pocket β1/SCN1B Ig domain binding surface, the sequence LQLEED (SEQ ID NO: 4) was selected as a short peptide candidate drug molecule.
In this Example to evaluate the long term effects (effects after more than 2 hours post treatment) of βadp1 and derivatives on β1 cell adhesion, electric cell-substrate impedance sensing (ECIS) was employed. ECIS measures the impedance of electric current. 4000 Hz is the recommended frequency for measuring changes in impedance between cells, assaying intercellular adhesion levels, as mediated by β1. […] To assist in focusing on the active sequence of βadp1 used to create the other peptides in this disclosure, ECIS experiments were completed using multiple small sequences as shown in FIGS. 3A-3E. From this, and in combination with the in silico experiments, it was determined that LQLEED (SEQ ID NO: 4) was the optimal sequence. […] For the other dimerized peptides, ERF residues were included on the c-terminal end of the LQLEED (SEQ ID NO: 4) peptide because residue R85 in SCN1B is associated with atrial fibrillation. Cells were plated in 8 well plates lined with 40 electrodes and treated with a 10 μM concentration of βadp1 in a final concentration of 0.1% DMSO at the time of plating or DMSO vehicle.
βadp1 is a peptide mimetic of a 20 amino acid (aa) sequence from the immunoglobulin (Ig) domain of the voltage gated sodium channel (VGSC) β1 subunit involved in adhesive interactions. […] Applicant synthesized a dimerized variant of the 20 aa βadp1 (FIG. 1) and tested it in monolayers of 1610 Chinese Hamster Lung cells stably expressing the β1 subunit (1610ß1) using electric cell substrate impedance sensing (ECIS) to determine whether it acted as an agonist that promoted β1-mediated adhesion.

[3] = system: β1 protein (SCN1B) in 1610β1 cells; assay: Confocal immunofluorescence of β1 abundance and Biotin-βadp1 uptake in 1610β1 cells; assay type: cell-based, Chinese hamster; conditions: for upregulation of β1 protein 48 hours after treatment: 50 μM; for upregulation of β1 protein 48 hours after treatment / β1 abundance (immunolabeling) at 48 hours compared to DMSO treated cells: FIG. 7; for β1 abundance (immunolabeling) at 48 hours compared to DMSO treated cells: 10 μM; for upregulation of β1 protein 48 hours after treatment / β1 abundance (immunolabeling) at 48 hours compared to DMSO treated cells / β1 abundance at cell-cell borders / in the membrane: 48 hours; for β1 abundance at cell-cell borders / in the membrane: FIG. 7D-7E
Experimental: Cells were then allowed to grow for 1-48 hours, after which they were fixed with 4% paraformaldehyde. […] White scale bar: 10 μm
FIGS. 7A-7D show 1610β1 cells treated for 48 hours with 10 μM concentrations of DMSO or βadp1 derived peptides (FIG. 7A) 0.1% DMSO, (FIG. 7B) βadp1, (FIG. 7C) LQLEED (SEQ ID NO: 4), (FIG. 7D) βS2L.
Next, the abundance of β1 protein was evaluated using confocal microscopy immunofluorescence (IF). 1610β1 cells were plated in 12 well plates on lysine coated coverslips and allowed to grow for 48 hours. Cells were then treated with a 50 μM concentration of βadp1, βS2L, βS2C, or LQLEED (SEQ ID NO: 4) or βadp1 conjugated with a Biotin molecule (B-βadp1) solubilized in a final concentration of 0.1% dimethyl sulfoxide (DMSO). Controls for the experiment were cells treated with only 0.1% DMSO vehicle. Cells were then fixed in 4% paraformaldehyde and stained with an antibody against the extracellular domain of β1 (Virginia Tech) and a streptavidin-Alexa647 (Invitrogen) conjugate to stain B-βadp1.
Applicant undertook immunolabeling studies to further probe the effect of the mimetic peptides on 1610β1 cells over time courses of up to 2 days. […] Prompted by this observation we examined what effects of 10 μM concentrations of LQLEED (SEQ ID NO: 4) and βS2L on β1 immunolabeling at or 48 hours over the same time course.

[4] = system: Isolated guinea pig hearts; conditions: cited from earlier work
[5] = system: β1-mediated adhesion and gap junction-associated VGSC activity in cultured cells; conditions: 1 to 2 hours; cited from earlier work
[6] = system: parental cell line of 1610 cells expressing negligible levels of β1; assay: ECIS in parental 1610 cells; assay type: cell-based, Chinese hamster
[7] = system: 1610β1 cells (β1/SCN1B-mediated cell adhesion); assay: Electric cell-substrate impedance sensing (ECIS) of cell adhesion in 1610β1 monolayers; assay type: cell-based, Chinese hamster
[8] = isolated guinea pig hearts treated acutely

| Compound | resistance compared to vehicle over the entire time course [2] | resistance compared to DMSO vehicle at 5 hours ([2]; 5 hours) | resistance compared to DMSO vehicle at (up to) 20 hours [2] | acute de-adhesion effects [2] | upregulation of β1 protein 48 hours after treatment [3] | resistance compared to DMSO vehicle at 40 hours [2] | β1 abundance (immunolabeling) at 48 hours compared to DMSO treated cells [3] | CTF levels on immunoblots, peptide alone [1] | β1 abundance at cell-cell borders / in the membrane [3] | other results |
| --- | --- | --- | --- | --- | --- | --- | --- | --- | --- | --- |
| C[C@H](NC(=O)Cc1cc(F)cc(F)c1)C(=O)N[C@H](C(=O)OC(C)(C)C)c1ccccc1 [DAPT, reference compound] | – | – | – | – | – | – | – | – | – | accumulation of the 19 kD C-terminal fragment (CTF) of β1 with DAPT ([1]; 1 μM DAPT, 6, 24 and 48 hours, versus no DAPT): accumulation of the 19KD CTF; also recorded: accumulated |
| CLQLEEDERF-G-LQLEEDERFC (CLQLEEDERFGLQLEEDERFC; disulfide 1-21 (inferred)) [βS2C, dimeric peptide with NT and CT cysteines, cyclizable via disulfide bonding] | increased resistance throughout the time course | increase resistance; also recorded: significantly elevated over vehicle control | increased resistance | no acute de-adhesion effects detectable | upregulation of β1 protein | – | – | – | – | – |
| FVKILRYENEVLQLEEDERF [βadp1] | – | decrease resistance | decrease resistance; also recorded: significantly decreased resistance; also recorded: significant decreases in resistance | – | – | no significant difference; also recorded: effects of βadp1 had reversed; also recorded: no longer significantly below those of controls | increase in β1 abundance | Neither βadp1 or βS2L alone appeared to have consistent effects | – | ECIS-assayed adhesion ([2]; 10 and 100 μM treatments): significant decreases in ECIS-assayed adhesion; normalized resistance of monolayers (marker of cell adhesion mediated by β1/SCN1B) relative to control ([2]; 1610 cells exogenously expressing β1/SCN1B, over 20 hours, FIG. 3D): significantly reduces normalized resistance; β1 levels at 48 hours ([3]; cells monitored up to 48 hours from the initial treatment): notably increased; regulated intramembrane proteolysis (RIP) of β1 ([1]; inferred from CTF accumulation with DAPT): increasing the amount of RIP that β1 undergoes; also recorded: increases the RIP of β1; perinexal adhesion at early time-points ([4]; <2 hours): perinexal de-adhesion; conduction velocity [4, 8]: decreased conduction velocity; perinexus width [4, 8]: widened perinexus; gap junction-associated VGSC activity [5]: inhibits; β1-mediated adhesion [5]: inhibits β1-mediated adhesion |
| FVKILRYENEVLQLEEDERGFVKILRYENEVLQLEEDER [Db1-βadp1, dimerized version of βadp1 with a glycine linker] | – | – | – | – | – | – | – | – | – | intercellular resistance in parental 1610 cells [6]: did not result in increased intercellular resistance; concentration dependence of the increase in resistance ([7]; 100 μM versus 50 μM, 24 hours): concentration dependent effect; also recorded: higher for 100 μM Db1-βadp1 versus the 50 μM treatment; resistance compared to DMSO/vehicle control ([7]; Db1-βadp1 100 μM and 50 μM, over 24 hours of treatment, n=2, FIG. 4): increased resistance |
| LQLEED [short monomeric peptide towards the carboxyl terminus of βadp1] | – | decrease resistance; also recorded: decreased levels of intercellular resistance | decreased resistance; also recorded: significant decreases in resistance | – | – | – | increase in β1 abundance; also recorded: appeared to increase | – | occasional evidence of increased intensity of immunolabeling signal at cell borders | – |
| LQLEEDERF-G-LQLEEDERF (LQLEEDERFGLQLEEDERF) [βS2L] | increased resistance throughout the time course; also recorded: significantly increasing resistance | increase resistance; also recorded: significantly elevated over vehicle control | increase resistance | no acute de-adhesion effects detectable | upregulation of β1 protein | continues to increase resistance | increase in β1 abundance; also recorded: cell-wide increases in β1 immunolabeling | Neither βadp1 or βS2L alone appeared to have consistent effects | increase the 1 abundance at cell-cell borders; also recorded: increase the β1 present in the membrane; also recorded: distinctive increase in signal at cell borders | resistance relative to that after the LQLEED inhibitory monomer ([2]; 5 hours): 5-6 fold |
